# Results taken from publication PMC6178183, “Development of a HPLC-MS/MS Method to Determine 11 Bioactive Compounds in Tongmai Yangxin Pill and Application to a Pharmacokinetic Study in Rats” (Evidence-based Complementary and Alternative Medicine : eCAM, 2018).
# “And” between values parts separate entries of the source, which are not always exact repeats. Equal values may be shown once.
# What was measured:
# [1] = Stability of analytes in rat plasma QC samples under storage conditions; type: in vitro ADME; conditions: n=6, gallic acid, ononin, schisandrin, stilbene glycoside, liquiritigenin, rhein, verbascoside; for Measured Concentration, auto-sampler for 12 h: prepared rat plasma samples; for Measured Concentration, -70°C for 14 days / Measured Concentration, room temperature for 6 h / Measured Concentration, three freeze-thaw cycles: rat plasma
# Method: Quality control (QC) samples at three concentrations (low, medium, and high concentration) were made up of appropriate mixed standard solutions with blank blood sample as calibration solutions to meet the required concentrations. All the solutions were kept at 4°C.
# The stability of analytes in plasma samples was determined by analyzing QC samples of three concentration levels at different conditions: stored at autosampler for 12 h, at room temperature for 6 h, under three freeze-thaw cycles and stored at -70°C for 14 days. All stability studies were measured in six replicates.
# [2] = Pharmacokinetic study in rats after oral administration of TMYX extract (HPLC-MS/MS of plasma); type: in vivo, Sprague–Dawley rats; conditions: rat plasma; for AUC(0-inf) / half-life / AUC / k el: male, Sprague-Dawley; for AUC: read-out: AUC (0-tn); for k el: read-out: K e (converted); for T max1: n=6, mean ± SD
# Method: The HPLC-MS/MS system consists of an Agilent 1200 high-performance liquid chromatography coupled with an Aglient 6430 series triple quadrupole mass spectrometer with an electrospray ionization (ESI) source. The chromatographic separation was achieved on a CORTECS C18 column (4.6 mm × 150 mm, 2.7 μm), and the column temperature was kept at 30°C. Mobile phases which consisted of 0.1% formic acid in water (A) and acetonitrile (B) were used in the following gradient elution method: 0-10 min, 10%-85% B; 10-13 min, 85%-95% B; 13-19 min, 95%-95% B. The flow rate was set at 0.3 mL/min, and the injection volume was 10 μL. All data were analyzed by Mass Hunter workstation software (Agilent Technologies, USA).
# The mass spectrometer was carried out in both positive and negative ionization multiple-reaction monitoring (MRM) mode. The source parameters were as follows: the capillary voltage set at 300 V for positive ionization mode and -300 V for negative ionization mode, the drying gas temperature was 320°C, the flow was 11 L/min, and nebulizing gas pressure was 30 psi.
# The plasma (100 μL) was spiked with 20 μL of methanol, 20 μL of the IS (icariin, 1 μg/mL), and 20 μL of formic acid and then vortex-mixed. The mixture was extracted with 800 μL of ethyl acetate by vortex mixing for 5 min at room temperature. After centrifugation at 14,000 rpm for 10 min, the supernatant was collected to a clean tube and evaporated to dryness under a nitrogen stream. The residue was reconstituted in 50 μL of 50% methanol, vortexed for 5 min, and centrifuged at 14,000 rpm for 10 min. Finally, 10 μL supernatant was injected into the LC-MS/MS system for analysis.
# Male Sprague–Dawley rats (230-250 g) were obtained from Beijing HFK Experimental Animal Technology Co., Ltd. The rats were maintained under the control environmental conditions and they fasted for 12 h with free access to water before the experiments. TMYX extracts were dissolved in CMC-Na and administrated orally to rats at 8.3 g/kg. The blood samples (200 μL) were collected from the rat fossa orbitalis vein at 0, 0.03, 0.083, 0.17, 0.25, 0.5, 1, 2, 4, 6, 8, 10, 12, 24, 36, and 48 h after oral administration to heparinized tubes. And then the blood samples were centrifuged at 7,000 rpm for 10 min to get the plasma sample immediately. Finally, the plasma obtained was stored at −70°C until analysis. Pharmacokinetic parameters were calculated by the computer program “Drug and Statistics 2.0” (DAS 2.0) (Medical College of Wannan, China).
# [3] = parameters: method as in PMID 25943824; conditions: active ingredients of TMYX with high R values; cited from earlier work
# [4] = high QC: spiked 2000 ng/mL glycyrrhizic acid, 1000 liquiritin, 200 emodin, 100 isoliquiritigenin
# [5] = low QC: spiked 20 ng/mL glycyrrhizic acid, 10 liquiritin, 2 emodin, 1 isoliquiritigenin
# [6] = medium QC: spiked 200 ng/mL glycyrrhizic acid, 100 liquiritin, 20 emodin, 10 isoliquiritigenin
# [7] = oral TMYX extract 8.3 g/kg single dose, n=6
# [8] = oral TMYX extract 8.3 g/kg single dose
# [9] = second peak, oral TMYX extract 8.3 g/kg single dose, n=6
structure (smiles),measurement,setting,value
O=C(O)c1cc(O)c(O)c(O)c1 [gallic acid],"Measured Concentration, auto-sampler for 12 h",[1]; [4],184.54 ± 2.46 ng/mL
same,"Measured Concentration, auto-sampler for 12 h",[1]; [5],2.03 ± 0.05 ng/mL
same,"Measured Concentration, auto-sampler for 12 h",[1]; [6],19.27 ± 0.35 ng/mL
same,"Measured Concentration, -70°C for 14 days",[1]; [4],199.19 ± 1.80 ng/mL
same,"Measured Concentration, room temperature for 6 h",[1]; [4],205.97 ± 2.14 ng/mL
same,"Measured Concentration, three freeze-thaw cycles",[1]; [4],196.77 ± 1.09 ng/mL
same,"Measured Concentration, -70°C for 14 days",[1]; [5],1.99 ± 0.04 ng/mL
same,"Measured Concentration, room temperature for 6 h",[1]; [5],1.97 ± 0.03 ng/mL
same,"Measured Concentration, three freeze-thaw cycles",[1]; [5],1.93 ± 0.04 ng/mL
same,"Measured Concentration, -70°C for 14 days",[1]; [6],19.26 ± 0.22 ng/mL
same,"Measured Concentration, room temperature for 6 h",[1]; [6],20.77 ± 1.09 ng/mL
same,"Measured Concentration, three freeze-thaw cycles",[1]; [6],20.08 ± 0.51 ng/mL
same,AUC(0-inf),[2]; [7],238 ± 173 ng·h/mL
same,half-life,[2]; [7],3.01 ± 1.35 h
same,AUC,[2]; [7],215 ± 137 ng·h/mL
same,k el,[2]; [7],7.5e-05 s⁻¹
same,C max1,[2]; [7],56.9 ± 42.8 ng/mL
same,T max1,[2]; [8],0.75 ± 0.67 h
COc1ccc(-c2coc3cc(O)ccc3c2=O)cc1 [formononetin],antiinflammatory effects,[3],exert antiinflammatory effects in a dose-dependent manner
O=C(/C=C/c1ccc(O)cc1)c1ccc(O)cc1O [isoliquiritigenin],"Measured Concentration, auto-sampler for 12 h",[1]; [4],97.47 ± 1.99 ng/mL
same,"Measured Concentration, auto-sampler for 12 h",[1]; [5],1.00 ± 0.02 ng/mL
same,"Measured Concentration, auto-sampler for 12 h",[1]; [6],9.60 ± 0.04 ng/mL
same,"Measured Concentration, -70°C for 14 days",[1]; [4],100.74 ± 2.95 ng/mL
same,"Measured Concentration, room temperature for 6 h",[1]; [4],106.11 ± 0.78 ng/mL
same,"Measured Concentration, three freeze-thaw cycles",[1]; [4],100.58 ± 0.91 ng/mL
same,"Measured Concentration, -70°C for 14 days",[1]; [5],0.89 ± 0.01 ng/mL
same,"Measured Concentration, room temperature for 6 h",[1]; [5],0.99 ± 0.01 ng/mL
same,"Measured Concentration, three freeze-thaw cycles",[1]; [5],0.89 ± 0.02 ng/mL
same,"Measured Concentration, -70°C for 14 days",[1]; [6],8.62 ± 0.04 ng/mL
same,"Measured Concentration, room temperature for 6 h",[1]; [6],10.86 ± 0.60 ng/mL
same,"Measured Concentration, three freeze-thaw cycles",[1]; [6],8.69 ± 0.14 ng/mL
same,AUC(0-inf),[2]; [7],436 ± 154 ng·h/mL
same,half-life,[2]; [7],13.5 ± 8.33 h
same,AUC,[2]; [7],410 ± 131 ng·h/mL
same,k el,[2]; [7],1.94e-05 s⁻¹
same,detection in vivo at 48 h,[2]; 48 h after oral TMYX extract 8.3 g/kg,can still be detected in vivo at 48 h
same,peaks in the mean plasma concentration-time profile,[2]; oral TMYX extract 8.3 g/kg,double peaks
same,C max1,[2]; [7],41.6 ± 24.2 ng/mL
same,T max1,[2]; [8],0.28 h and 0.28 ± 0.11 h
same,C max2,[2]; [9],24.9 ± 13.5 ng/mL
same,T max2,[2]; [9],7.00 h and 7.00 ± 2.45 h
C[C@@H]1O[C@@H](O[C@@H]2[C@@H](O)[C@H](OCCc3ccc(O)c(O)c3)O[C@H](CO)[C@H]2OC(=O)/C=C/c2ccc(O)c(O)c2)[C@H](O)[C@H](O)[C@H]1O [verbascoside],"Measured Concentration, auto-sampler for 12 h",[1]; [4],93.52 ± 0.27 ng/mL
same,"Measured Concentration, auto-sampler for 12 h",[1]; [5],1.05 ± 0.02 ng/mL
same,"Measured Concentration, auto-sampler for 12 h",[1]; [6],9.50 ± 0.04 ng/mL
same,"Measured Concentration, -70°C for 14 days",[1]; [4],107.40 ± 1.47 ng/mL
same,"Measured Concentration, room temperature for 6 h",[1]; [4],103.95 ± 1.33 ng/mL
same,"Measured Concentration, three freeze-thaw cycles",[1]; [4],108.42 ± 1.17 ng/mL
same,"Measured Concentration, -70°C for 14 days",[1]; [5],1.01 ± 0.02 ng/mL
same,"Measured Concentration, room temperature for 6 h",[1]; [5],0.92 ± 0.01 ng/mL
same,"Measured Concentration, three freeze-thaw cycles",[1]; [5],1.09 ± 0.01 ng/mL
same,"Measured Concentration, -70°C for 14 days",[1]; [6],9.81 ± 0.22 ng/mL
same,"Measured Concentration, room temperature for 6 h",[1]; [6],9.57 ± 0.21 ng/mL
same,"Measured Concentration, three freeze-thaw cycles",[1]; [6],10.17 ± 0.90 ng/mL
same,AUC(0-inf),[2]; [7],61 ± 29.8 ng·h/mL
same,half-life,[2]; [7],1.53 ± 0.67 h
same,AUC,[2]; [7],51.4 ± 29.8 ng·h/mL
same,k el,[2]; [7],0.000156 s⁻¹
same,C max1,[2]; [7],23.4 ± 8.7 ng/mL
same,T max1,[2]; [8],0.37 ± 0.18 h
COc1cc2c(c(OC)c1OC)-c1c3cc4c(c1OC[C@@H](C)[C@@](C)(O)C(=O)O[C@@H]2[C@@](C)(O)[C@@H](C)C3)OCO4 [gomisin D],antiinflammatory effects,[3],exert antiinflammatory effects in a dose-dependent manner
O=C(O)c1cc(O)c2c(c1)C(=O)c1cccc(O)c1C2=O [rhein],"Measured Concentration, auto-sampler for 12 h",[1]; [4],97.32 ± 1.05 ng/mL
same,"Measured Concentration, auto-sampler for 12 h",[1]; [5],0.97 ± 0.01 ng/mL
same,"Measured Concentration, auto-sampler for 12 h",[1]; [6],9.86 ± 0.09 ng/mL
same,"Measured Concentration, -70°C for 14 days",[1]; [4],85.95 ± 0.39 ng/mL
same,"Measured Concentration, room temperature for 6 h",[1]; [4],101.97 ± 1.07 ng/mL
same,"Measured Concentration, three freeze-thaw cycles",[1]; [4],86.7 ± 1.33 ng/mL
same,"Measured Concentration, -70°C for 14 days",[1]; [5],0.95 ± 0.05 ng/mL
same,"Measured Concentration, room temperature for 6 h",[1]; [5],0.97 ± 0.02 ng/mL
same,"Measured Concentration, three freeze-thaw cycles",[1]; [5],0.98 ± 0.03 ng/mL
same,"Measured Concentration, -70°C for 14 days",[1]; [6],8.71 ± 0.11 ng/mL
same,"Measured Concentration, room temperature for 6 h",[1]; [6],10.23 ± 0.04 ng/mL
same,"Measured Concentration, three freeze-thaw cycles",[1]; [6],8.89 ± 0.08 ng/mL
same,AUC(0-inf),[2]; [7],152 ± 61.3 ng·h/mL
same,half-life,[2]; [7],2.84 ± 2.13 h
same,AUC,[2]; [7],145 ± 52.6 ng·h/mL
same,k el,[2]; [7],0.000156 s⁻¹
same,C max1,[2]; [7],46.3 ± 15.6 ng/mL
same,T max1,[2]; [8],0.36 ± 0.31 h
O=C1C[C@@H](c2ccc(O[C@@H]3O[C@H](CO)[C@@H](O)[C@H](O)[C@H]3O)cc2)Oc2cc(O)ccc21 [liquiritin],"Measured Concentration, auto-sampler for 12 h",[1]; [4],869.12 ± 14.52 ng/mL
same,"Measured Concentration, auto-sampler for 12 h",[1]; [5],10.26 ± 0.11 ng/mL
same,"Measured Concentration, auto-sampler for 12 h",[1]; [6],108.02 ± 0.66 ng/mL
same,"Measured Concentration, -70°C for 14 days",[1]; [4],1021.69 ± 19.98 ng/mL
same,"Measured Concentration, room temperature for 6 h",[1]; [4],1076.07 ± 10.27 ng/mL
same,"Measured Concentration, three freeze-thaw cycles",[1]; [4],952.89 ± 11.22 ng/mL
same,"Measured Concentration, -70°C for 14 days",[1]; [5],10.04 ± 0.12 ng/mL
same,"Measured Concentration, room temperature for 6 h",[1]; [5],9.85 ± 0.09 ng/mL
same,"Measured Concentration, three freeze-thaw cycles",[1]; [5],9.26 ± 0.16 ng/mL
same,"Measured Concentration, -70°C for 14 days",[1]; [6],105.05 ± 1.73 ng/mL
same,"Measured Concentration, room temperature for 6 h",[1]; [6],108.97 ± 1.51 ng/mL
same,"Measured Concentration, three freeze-thaw cycles",[1]; [6],109.67 ± 1.86 ng/mL
same,AUC(0-inf),[2]; [7],651 ± 220 ng·h/mL
same,half-life,[2]; [7],2.16 ± 1.44 h
same,AUC,[2]; [7],637 ± 220 ng·h/mL
same,k el,[2]; [7],0.000214 s⁻¹
same,C max1,[2]; [7],199.9 ± 120.2 ng/mL
same,T max1,[2]; [8],0.50 ± 0.46 h
